Results from PubChem BioAssay AID1745844 (Carcinogenic Potency Database (CPDB), 2022).
Active and inactive are the calls of the source. No rule for the calls is given here.

Tested on: rodent lifetime carcinogenesis bioassay, tumor incidence TD50
Assay: carcinogenic potency in animals, long-term in vivo studies, CPDB compilation (AID 1745844)

## c1ccoc1
mouse, strain B6C3F1, females, by gavage, site: adrenal medulla + liver, lesion: pheochromocytoma, benign + hepatocellular adenoma + hepatocellular carcinoma, dosed 104 weeks, study length 105 weeks
  TD50: 2.26 mg/kg/day
mouse, strain B6C3F1, females, by gavage, site: adrenal medulla, lesion: pheochromocytoma, benign, dosed 104 weeks, study length 105 weeks
  TD50: 36 mg/kg/day
mouse, strain B6C3F1, females, by gavage, site: any site (literature study), lesion: several types, types named in the paper, dosed 104 weeks, study length 105 weeks
  TD50: 2.81 mg/kg/day
mouse, strain B6C3F1, females, by gavage, site: forestomach, lesion: squamous-cell papilloma, dosed 104 weeks, study length 105 weeks
  TD50: 23.8 mg/kg/day
mouse, strain B6C3F1, females, by gavage, site: liver, lesion: carcinoma + hepatocellular carcinoma, dosed 104 weeks, study length 105 weeks
  TD50: 6.85 mg/kg/day
mouse, strain B6C3F1, females, by gavage, site: liver, lesion: hepatocellular adenoma + hepatocellular carcinoma + neoplastic nodule, dosed 104 weeks, study length 105 weeks
  TD50: 2.19 mg/kg/day
mouse, strain B6C3F1, females, by gavage, site: liver, lesion: hepatocellular adenoma + hepatocellular carcinoma, dosed 104 weeks, study length 105 weeks
  TD50: 2.19 mg/kg/day
mouse, strain B6C3F1, females, by gavage, site: liver, lesion: hepatocellular adenoma, dosed 104 weeks, study length 105 weeks
  TD50: 2.26 mg/kg/day
mouse, strain B6C3F1, females, by gavage, site: lung, lesion: alveolar/bronchiolar adenoma + alveolar/bronchiolar carcinoma, dosed 104 weeks, study length 105 weeks
  TD50: 38.5 mg/kg/day
mouse, strain B6C3F1, males, by gavage, site: adrenal medulla + liver, lesion: pheochromocytoma, benign + hepatocellular adenoma + hepatocellular carcinoma, dosed 104 weeks, study length 105 weeks
  TD50: 3.6 mg/kg/day
mouse, strain B6C3F1, males, by gavage, site: adrenal medulla, lesion: pheochromocytoma, benign, dosed 104 weeks, study length 105 weeks
  TD50: 20.1 mg/kg/day
mouse, strain B6C3F1, males, by gavage, site: any site (literature study), lesion: several types, types named in the paper, dosed 104 weeks, study length 105 weeks
  TD50: 5.43 mg/kg/day
mouse, strain B6C3F1, males, by gavage, site: forestomach, lesion: squamous-cell papilloma, dosed 104 weeks, study length 105 weeks
  TD50: 64.6 mg/kg/day
mouse, strain B6C3F1, males, by gavage, site: liver, lesion: hepatocellular adenoma + hepatocellular carcinoma + neoplastic nodule, dosed 104 weeks, study length 105 weeks
  TD50: 3.6 mg/kg/day
mouse, strain B6C3F1, males, by gavage, site: liver, lesion: hepatocellular adenoma + hepatocellular carcinoma, dosed 104 weeks, study length 105 weeks
  TD50: 3.6 mg/kg/day
mouse, strain B6C3F1, males, by gavage, site: liver, lesion: hepatocellular adenoma, dosed 104 weeks, study length 105 weeks
  TD50: 4.02 mg/kg/day
mouse, strain B6C3F1, males, by gavage, site: liver, lesion: hepatocellular carcinoma, dosed 104 weeks, study length 105 weeks
  TD50: 5.13 mg/kg/day
mouse, strain B6C3F1, males, by gavage, site: lung, lesion: alveolar/bronchiolar adenoma + alveolar/bronchiolar carcinoma, dosed 104 weeks, study length 105 weeks
  TD50: 21.5 mg/kg/day
mouse, strain B6C3F1, males, by gavage, site: lung, lesion: alveolar/bronchiolar adenoma, dosed 104 weeks, study length 105 weeks
  TD50: 18.2 mg/kg/day
mouse, strain B6C3F1, males, by gavage, site: multiple organs, lesion: malignant lymphoma, histiocytic type + malignant lymphoma, mixed type, dosed 104 weeks, study length 105 weeks
  TD50: 11 mg/kg/day
rat, strain Fischer 344, females, by gavage, site: any site (literature study), lesion: several types, types named in the paper, dosed 103 weeks, study length 104 weeks
  TD50: 2.83 mg/kg/day
rat, strain Fischer 344, females, by gavage, site: liver + multiple organs, lesion: cholangiocarcinoma + hepatocellular adenoma + hepatocellular carcinoma + mononuclear-cell leukemia, dosed 103 weeks, study length 104 weeks
  TD50: 0.543 mg/kg/day
rat, strain Fischer 344, females, by gavage, site: liver, lesion: cholangiocarcinoma, dosed 103 weeks, study length 104 weeks
  TD50: 0.395 mg/kg/day
rat, strain Fischer 344, females, by gavage, site: liver, lesion: hepatocellular adenoma + hepatocellular carcinoma + neoplastic nodule, dosed 103 weeks, study length 104 weeks
  TD50: 11.2 mg/kg/day
rat, strain Fischer 344, females, by gavage, site: liver, lesion: hepatocellular adenoma + hepatocellular carcinoma, dosed 103 weeks, study length 104 weeks
  TD50: 11.2 mg/kg/day
rat, strain Fischer 344, females, by gavage, site: liver, lesion: hepatocellular adenoma, dosed 103 weeks, study length 104 weeks
  TD50: 11.8 mg/kg/day
rat, strain Fischer 344, females, by gavage, site: multiple organs, lesion: mononuclear-cell leukemia, dosed 103 weeks, study length 104 weeks
  TD50: 5.84 mg/kg/day
rat, strain Fischer 344, females, by gavage, site: urinary bladder, lesion: transitional-cell papilloma, dosed 103 weeks, study length 104 weeks
  TD50: 50.7 mg/kg/day
rat, strain Fischer 344, males, by gavage, site: adrenal medulla, lesion: pheochromocytoma, benign, dosed 103 weeks, study length 104 weeks
  TD50: 12.7 mg/kg/day
rat, strain Fischer 344, males, by gavage, site: any site (literature study), lesion: several types, types named in the paper, dosed 103 weeks, study length 104 weeks
  TD50: 1.96 mg/kg/day
rat, strain Fischer 344, males, by gavage, site: liver + multiple organs, lesion: cholangiocarcinoma + hepatocellular adenoma + hepatocellular carcinoma + mononuclear-cell leukemia, dosed 103 weeks, study length 104 weeks
  TD50: 0.529 mg/kg/day
rat, strain Fischer 344, males, by gavage, site: liver, lesion: cholangiocarcinoma, dosed 103 weeks, study length 104 weeks
  TD50: 0.398 mg/kg/day
rat, strain Fischer 344, males, by gavage, site: liver, lesion: hepatocellular adenoma + hepatocellular carcinoma + neoplastic nodule, dosed 103 weeks, study length 104 weeks
  TD50: 2.31 mg/kg/day
rat, strain Fischer 344, males, by gavage, site: liver, lesion: hepatocellular adenoma + hepatocellular carcinoma, dosed 103 weeks, study length 104 weeks
  TD50: 2.31 mg/kg/day
rat, strain Fischer 344, males, by gavage, site: liver, lesion: hepatocellular adenoma, dosed 103 weeks, study length 104 weeks
  TD50: 3.1 mg/kg/day
rat, strain Fischer 344, males, by gavage, site: liver, lesion: hepatocellular carcinoma, dosed 103 weeks, study length 104 weeks
  TD50: 6.18 mg/kg/day
rat, strain Fischer 344, males, by gavage, site: multiple organs, lesion: mononuclear-cell leukemia, dosed 103 weeks, study length 104 weeks
  TD50: 4.64 mg/kg/day
rat, strain Fischer 344, males, by gavage, site: preputial gland, lesion: adenoma + adenoma, bilateral, dosed 103 weeks, study length 104 weeks
  TD50: 21.5 mg/kg/day
rat, strain Fischer 344, males, by gavage, site: skin, lesion: keratoacanthoma, dosed 103 weeks, study length 104 weeks
  TD50: 16.4 mg/kg/day
rat, strain Fischer 344, males, by gavage, site: subcutaneous tissue, lesion: fibroma, dosed 103 weeks, study length 104 weeks
  TD50: 18.1 mg/kg/day
rat, strain Fischer 344, males, by gavage, site: testis, lesion: interstitial-cell adenoma, dosed 103 weeks, study length 104 weeks
  TD50: 3.14 mg/kg/day

## CC=O
hamster, strain Syrian Golden, females, inhaled, site: larynx, lesion: adenosquamous carcinoma, dosed 52 weeks, study length 81 weeks
  TD50: 1140 mg/kg/day
hamster, strain Syrian Golden, females, inhaled, site: larynx, lesion: several types, types named in the paper, dosed 52 weeks, study length 81 weeks
  TD50: 728 mg/kg/day
hamster, strain Syrian Golden, females, inhaled, site: larynx, lesion: squamous-cell carcinoma, dosed 52 weeks, study length 81 weeks
  TD50: 2360 mg/kg/day
hamster, strain Syrian Golden, males, inhaled, site: larynx, lesion: carcinoma, in situ, dosed 52 weeks, study length 81 weeks
  TD50: 641 mg/kg/day
hamster, strain Syrian Golden, males, inhaled, site: larynx, lesion: several types, types named in the paper, dosed 52 weeks, study length 81 weeks
  TD50: 461 mg/kg/day
hamster, strain Syrian Golden, males, inhaled, site: larynx, lesion: squamous-cell carcinoma, dosed 52 weeks, study length 81 weeks
  TD50: 2070 mg/kg/day
hamster, strain Syrian Golden, males, inhaled, site: nose, lesion: anaplastic carcinoma, dosed 52 weeks, study length 81 weeks
  TD50: 2070 mg/kg/day
hamster, strain Syrian Golden, males, inhaled, site: respiratory system, lesion: several types, types named in the paper, dosed 52 weeks, study length 81 weeks
  TD50: 461 mg/kg/day
rat, strain Wistar-random, females, inhaled, site: nasal mucosa, lesion: adenocarcinoma, dosed 50 weeks, study length 105 weeks
  TD50: 201 mg/kg/day
rat, strain Wistar-random, females, inhaled, site: nasal mucosa, lesion: several types, types named in the paper, dosed 50 weeks, study length 105 weeks
  TD50: 148 mg/kg/day
rat, strain Wistar-random, females, inhaled, site: nasal mucosa, lesion: squamous-cell carcinoma, dosed 50 weeks, study length 105 weeks
  TD50: 574 mg/kg/day
rat, strain Wistar-random, males, inhaled, site: nasal mucosa, lesion: adenocarcinoma, dosed 50 weeks, study length 105 weeks
  TD50: 190 mg/kg/day
rat, strain Wistar-random, males, inhaled, site: nasal mucosa, lesion: several types, types named in the paper, dosed 50 weeks, study length 105 weeks
  TD50: 88.5 mg/kg/day
rat, strain Wistar-random, males, inhaled, site: nasal mucosa, lesion: squamous-cell carcinoma, dosed 50 weeks, study length 105 weeks
  TD50: 200 mg/kg/day
rat, strain Wistar, females, inhaled, site: nose, lesion: adenocarcinoma, dosed 111 weeks, study length 121 weeks
  TD50: 370 mg/kg/day
rat, strain Wistar, females, inhaled, site: nose, lesion: carcinoma, in situ, dosed 111 weeks, study length 121 weeks
  TD50: 3000 mg/kg/day
rat, strain Wistar, females, inhaled, site: nose, lesion: squamous-cell carcinoma, dosed 111 weeks, study length 121 weeks
  TD50: 1030 mg/kg/day
rat, strain Wistar, males, inhaled, site: nose, lesion: adenocarcinoma, dosed 111 weeks, study length 121 weeks
  TD50: 185 mg/kg/day
rat, strain Wistar, males, inhaled, site: nose, lesion: squamous-cell carcinoma, dosed 111 weeks, study length 121 weeks
  TD50: 627 mg/kg/day

## Nc1ccc(S(=O)(=O)c2ccc(N)cc2)cc1
mouse, strain B6C3F1, females, in feed, site: any site (literature study), lesion: several types, types named in the paper, dosed 78 weeks, study length 107 weeks
  carcinogen call: negative (inactive)
mouse, strain B6C3F1, males, in feed, site: any site (literature study), lesion: several types, types named in the paper, dosed 78 weeks, study length 107 weeks
  carcinogen call: negative (inactive)
rat, strain Fischer 344, females, in feed, site: any site (literature study), lesion: several types, types named in the paper, dosed 78 weeks, study length 105 weeks
  carcinogen call: negative (inactive)
rat, strain Fischer 344, males, in feed, site: all sites, lesion: lymphoma, dosed 78 weeks, study length 104 weeks
  TD50: 50.1 mg/kg/day
rat, strain Fischer 344, males, in feed, site: any site (literature study), lesion: several types, types named in the paper, dosed 78 weeks, study length 104 weeks
  TD50: 22.4 mg/kg/day
rat, strain Fischer 344, males, in feed, site: peritoneum, lesion: fibrosarcoma + sarcoma, NOS, dosed 78 weeks, study length 104 weeks
  TD50: 56.3 mg/kg/day
rat, strain Fischer 344, males, in feed, site: peritoneum, lesion: fibrosarcoma, dosed 78 weeks, study length 104 weeks
  TD50: 148 mg/kg/day
rat, strain Fischer 344, males, in feed, site: peritoneum, lesion: sarcoma, NOS, dosed 78 weeks, study length 104 weeks
  TD50: 91.3 mg/kg/day
rat, strain Fischer 344, males, in feed, site: spleen, lesion: fibroma, dosed 78 weeks, study length 104 weeks
  TD50: 28.5 mg/kg/day
rat, strain Fischer 344, males, in feed, site: spleen, lesion: fibrosarcoma + fibroma + sarcoma, NOS, dosed 78 weeks, study length 104 weeks
  TD50: 22.4 mg/kg/day
rat, strain Fischer 344, males, in feed, site: spleen, lesion: fibrosarcoma, dosed 78 weeks, study length 104 weeks
  TD50: 167 mg/kg/day
rat, strain Fischer 344, males, in feed, site: spleen, lesion: sarcoma, NOS, dosed 78 weeks, study length 104 weeks
  TD50: 170 mg/kg/day
